According to ChEMBL document CHEMBL5252541, “Repurposing antipsychotic drugs into antifungal agents: Synergistic combinations of azoles and bromperidol derivatives in the treatment of various fungal infections” (Eur J Med Chem, 2017):
≈ marks a conversion by molar mass, not a printed value.

Legend:
[1] = test system: Candida albicans; experiment: Synergistic antifungal activity against Candida albicans ATCC 64124 assessed as fluconazole MIC measured after 48 hrs by checkboard based microplate reader analysis; assay type: functional
[2] = test system: Candida albicans; experiment: Synergistic antifungal activity against Candida albicans ATCC 10231 assessed as fluconazole MIC measured after 48 hrs by checkboard based microplate reader analysis; assay type: functional
[3] = test system: Candida albicans; experiment: Antifungal activity against Candida albicans ATCC 64124 measured after 48 hrs by broth microdilution analysis; assay type: functional
[4] = test system: Candida albicans; experiment: Antifungal activity against Candida albicans ATCC 10231 measured after 48 hrs by broth microdilution analysis; assay type: functional
[5] = test system: Candida albicans; experiment: Synergistic antifungal activity against Candida albicans ATCC 64124 assessed as itraconazole MIC measured after 48 hrs by checkboard based microplate reader analysis; assay type: functional
[6] = test system: Candida albicans; experiment: Synergistic antifungal activity against Candida albicans ATCC 10231 assessed as itraconazole MIC measured after 48 hrs by checkboard based microplate reader analysis; assay type: functional
[7] = test system: Candida albicans; experiment: Synergistic antifungal activity against Candida albicans ATCC 10231 assessed as compound MIC measured after 48 hrs in presence of fluconazole by checkboard based microplate reader analysis; assay type: functional
[8] = test system: Candida albicans; experiment: Synergistic antifungal activity against Candida albicans ATCC 64124 assessed as compound MIC measured after 48 hrs in presence of posaconazole by checkboard based microplate reader analysis; assay type: functional
[9] = test system: Candida albicans; experiment: Synergistic antifungal activity against Candida albicans ATCC 10231 assessed as compound MIC measured after 48 hrs in presence of posaconazole by checkboard based microplate reader analysis; assay type: functional
[10] = test system: Candida albicans; experiment: Synergistic antifungal activity against Candida albicans ATCC 64124 assessed as compound MIC measured after 48 hrs in presence of ketoconazole by checkboard based microplate reader analysis; assay type: functional
[11] = test system: Candida albicans; experiment: Synergistic antifungal activity against Candida albicans ATCC 10231 assessed as compound MIC measured after 48 hrs in presence of ketoconazole by checkboard based microplate reader analysis; assay type: functional
[12] = test system: Candida albicans; experiment: Synergistic antifungal activity against Candida albicans ATCC 64124 assessed as compound MIC measured after 48 hrs in presence of itraconazole by checkboard based microplate reader analysis; assay type: functional
[13] = test system: Candida albicans; experiment: Synergistic antifungal activity against Candida albicans ATCC 10231 assessed as compound MIC measured after 48 hrs in presence of itraconazole by checkboard based microplate reader analysis; assay type: functional
[14] = test system: Candida albicans; experiment: Synergistic antifungal activity against Candida albicans ATCC 64124 assessed as compound MIC measured after 48 hrs in presence of fluconazole by checkboard based microplate reader analysis; assay type: functional
[15] = test system: Candida albicans; experiment: Antifungal activity against Candida albicans ATCC MYA-1237 measured after 48 hrs by broth microdilution analysis; assay type: functional
[16] = test system: Nakaseomyces glabratus; experiment: Antifungal activity against Candida glabrata ATCC 2001 measured after 48 hrs by broth microdilution analysis; assay type: functional
[17] = test system: Candida albicans; experiment: Synergistic antifungal activity against Candida albicans ATCC 10231 assessed as compound MIC measured after 48 hrs in presence of voriconazole by checkboard based microplate reader analysis; assay type: functional
[18] = test system: Candida albicans; experiment: Synergistic antifungal activity against Candida albicans ATCC 64124 assessed as compound MIC measured after 48 hrs in presence of voriconazole by checkboard based microplate reader analysis; assay type: functional
[19] = test system: Candida albicans; experiment: Additive antifungal activity against Candida albicans ATCC 10231 assessed as fractional inhibitory concentration index measured for 72 hrs in presence of fluconazole; assay type: functional
[20] = test system: Candida albicans; experiment: Additive antifungal activity against Candida albicans ATCC 64124 assessed as fractional inhibitory concentration index measured for 72 hrs in presence of fluconazole; assay type: functional
[21] = test system: Candida albicans; experiment: Additive antifungal activity against Candida albicans ATCC 10231 assessed as fractional inhibitory concentration index measured for 72 hrs in presence of itraconazole; assay type: functional
[22] = test system: Candida albicans; experiment: Additive antifungal activity against Candida albicans ATCC 64124 assessed as fractional inhibitory concentration index measured for 72 hrs in presence of itraconazole; assay type: functional
[23] = test system: Candida albicans; experiment: Partial synergistic antifungal activity against Candida albicans ATCC 64124 assessed as fractional inhibitory concentration index measured for 72 hrs in presence of voriconazole; assay type: functional
[24] = test system: Candida albicans; experiment: Partial synergistic antifungal activity against Candida albicans ATCC 10231 assessed as fractional inhibitory concentration index measured for 72 hrs in presence of ketoconazole; assay type: functional
[25] = test system: Candida albicans; experiment: Partial synergistic antifungal activity against Candida albicans ATCC 64124 assessed as fractional inhibitory concentration index measured for 72 hrs in presence of ketoconazole; assay type: functional
[26] = test system: Candida albicans; experiment: Antifungal activity against Candida albicans ATCC MYA-1003 measured after 48 hrs by broth microdilution analysis; assay type: functional
[27] = test system: Candida albicans; experiment: Antifungal activity against Candida albicans ATCC MYA-2310 measured after 48 hrs by broth microdilution analysis; assay type: functional
[28] = test system: Candida albicans; experiment: Antifungal activity against Candida albicans ATCC MYA-2876 measured after 48 hrs by broth microdilution analysis; assay type: functional
[29] = test system: Candida albicans; experiment: Antifungal activity against Candida albicans ATCC 90819 measured after 48 hrs by broth microdilution analysis; assay type: functional
[30] = test system: Aspergillus terreus; experiment: Antifungal activity against Aspergillus terreus ATCC MYA-3633 measured after 48 hrs by broth microdilution analysis; assay type: functional
[31] = test system: Candida albicans; experiment: Additive antifungal activity against Candida albicans ATCC MYA-1237 assessed as fractional inhibitory concentration index measured for 72 hrs in presence of posaconazole; assay type: functional
[32] = test system: Candida albicans; experiment: Additive antifungal activity against Candida albicans ATCC MYA-1237 assessed as fractional inhibitory concentration index measured for 72 hrs in presence of voriconazole; assay type: functional
[33] = test system: Candida albicans; experiment: Additive antifungal activity against Candida albicans ATCC MYA-2310 assessed as fractional inhibitory concentration index measured for 72 hrs in presence of posaconazole; assay type: functional
[34] = test system: Candida albicans; experiment: Additive antifungal activity against Candida albicans ATCC MYA-2310 assessed as fractional inhibitory concentration index measured for 72 hrs in presence of voriconazole; assay type: functional
[35] = test system: Candida albicans; experiment: Additive antifungal activity against Candida albicans ATCC MYA-2876 assessed as fractional inhibitory concentration index measured for 72 hrs in presence of posaconazole; assay type: functional
[36] = test system: Candida albicans; experiment: Additive antifungal activity against Candida albicans ATCC MYA-2876 assessed as fractional inhibitory concentration index measured for 72 hrs in presence of voriconazole; assay type: functional
[37] = test system: Candida albicans; experiment: Additive antifungal activity against Candida albicans ATCC 90819 assessed as fractional inhibitory concentration index measured for 72 hrs in presence of posaconazole; assay type: functional
[38] = test system: Candida albicans; experiment: Additive antifungal activity against Candida albicans ATCC 90819 assessed as fractional inhibitory concentration index measured for 72 hrs in presence of voriconazole; assay type: functional
[39] = test system: Nakaseomyces glabratus; experiment: Additive antifungal activity against Candida glabrata ATCC 2001 assessed as fractional inhibitory concentration index measured for 72 hrs in presence of posaconazole; assay type: functional
[40] = test system: Nakaseomyces glabratus; experiment: Additive antifungal activity against Candida glabrata ATCC 2001 assessed as fractional inhibitory concentration index measured for 72 hrs in presence of voriconazole; assay type: functional
[41] = test system: Aspergillus terreus; experiment: Additive antifungal activity against Aspergillus terreus ATCC MYA-3633 assessed as fractional inhibitory concentration index measured for 72 hrs in presence of voriconazole; assay type: functional
[42] = test system: Nakaseomyces glabratus; experiment: Synergistic antifungal activity against Candida glabrata ATCC 2001 assessed as fractional inhibitory concentration index measured for 72 hrs in presence of posaconazole; assay type: functional
[43] = test system: Candida albicans; experiment: Additive antifungal activity against Candida albicans MYA-1003 assessed as fractional inhibitory concentration index measured for 72 hrs in presence of voriconazole
[44] = test system: Candida albicans; experiment: Synergistic antifungal activity against Candida albicans ATCC 64124 assessed as ketoconazole MIC measured after 48 hrs by checkboard based microplate reader analysis; assay type: functional
[45] = test system: Candida albicans; experiment: Synergistic antifungal activity against Candida albicans ATCC 10231 assessed as ketoconazole MIC measured after 48 hrs by checkboard based microplate reader analysis; assay type: functional
[46] = test system: Candida albicans; experiment: Additive antifungal activity against Candida albicans ATCC 10231 assessed as fractional inhibitory concentration index measured for 72 hrs in presence of ketoconazole; assay type: functional

OC(Cn1cncn1)(Cn1cncn1)c1ccc(F)cc1F [FLUCONAZOLE]
MIC [1]: > 32 µg/mL | MIC [2]: > 32 µg/mL | MIC [3]: > 32 µg/mL | MIC [4]: > 32 µg/mL

CCC(C)n1ncn(-c2ccc(N3CCN(c4ccc(OCC5COC(Cn6cncn6)(c6ccc(Cl)cc6Cl)O5)cc4)CC3)cc2)c1=O (stereo not drawn) [ITRACONAZOLE]
MIC [3]: > 32 µg/mL | MIC [4]: 1 µg/mL (≈ 1.42 µM) | MIC [5]: > 32 µg/mL | MIC [6]: 0.25 µg/mL

O=C(CCCN1CCC(O)(c2ccc(Br)cc2)CC1)c1ccc(Br)cc1
MIC [2]: > 32 µg/mL | MIC [3]: > 64 µg/mL | MIC [4]: > 64 µg/mL | MIC [7]: > 64 µg/mL | MIC [8]: 16 µg/mL | MIC [9]: 32 µg/mL | MIC [10]: 1 µg/mL | MIC [11]: 1 µg/mL | MIC [12]: > 64 µg/mL | MIC [13]: 64 µg/mL | MIC [14]: > 64 µg/mL | MIC [15]: > 64 µg/mL | MIC [16]: > 64 µg/mL | MIC [17]: 32 µg/mL | MIC [18]: 32 µg/mL | fractional inhibitory concentration index (FICI) [19]: 2 | fractional inhibitory concentration index (FICI) [20]: 2 | fractional inhibitory concentration index (FICI) [21]: 1.5 | fractional inhibitory concentration index (FICI) [22]: 2 | fractional inhibitory concentration index (FICI) [23]: 0.63 | fractional inhibitory concentration index (FICI) [24]: 0.52 | fractional inhibitory concentration index (FICI) [25]: 0.52 | MIC [26]: > 64 µg/mL | MIC [27]: > 64 µg/mL | MIC [28]: > 64 µg/mL | MIC [29]: > 64 µg/mL | MIC [30]: > 64 µg/mL | fractional inhibitory concentration index (FICI) [31]: 2 | fractional inhibitory concentration index (FICI) [32]: 2 | fractional inhibitory concentration index (FICI) [33]: 2 | fractional inhibitory concentration index (FICI) [34]: 2 | fractional inhibitory concentration index (FICI) [35]: 2 | fractional inhibitory concentration index (FICI) [36]: 2 | fractional inhibitory concentration index (FICI) [37]: 2 | fractional inhibitory concentration index (FICI) [38]: 2 | fractional inhibitory concentration index (FICI) [39]: 0.38 | fractional inhibitory concentration index (FICI) [40]: 2 | fractional inhibitory concentration index (FICI) [41]: 2 | fractional inhibitory concentration index (FICI) [42]: 0.38 | fractional inhibitory concentration index (FICI) [43]: 2

CC(=O)N1CCN(c2ccc(OCC3COC(Cn4ccnc4)(c4ccc(Cl)cc4Cl)O3)cc2)CC1 (stereo not drawn) [KETOCONAZOLE]
MIC [3]: 8 µg/mL (≈ 15.1 µM) | MIC [4]: 1 µg/mL (≈ 1.88 µM) | MIC [44]: 4 µg/mL | MIC [45]: 0.5 µg/mL | fractional inhibitory concentration index (FICI) [46]: 2
